Data from PubChem BioAssay (NCI).
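96-well plates; 48 h exposure; 5 concentrations. Endpoints by linear interpolation between flanking doses. Not reached: highest tested concentration assigned. The concentration for 50% growth inhibition is given as GI50. TGI marks complete inhibition of growth.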

What was measured:
Test in all cases: NCI anticancer screen, dose series, 48 h
SK-MEL-2 melanoma = system: SK-MEL-2 melanoma
BT-549 breast = system: BT-549 breast
IGROV1 ovarian = system: IGROV1 ovarian
CCRF-CEM leukemia = system: CCRF-CEM leukemia
HOP-92 NSCLC = system: HOP-92 NSCLC
HL-60(TB) leukemia = system: HL-60(TB) leukemia
SK-MEL-5 melanoma = system: SK-MEL-5 melanoma
SK-MEL-28 melanoma = system: SK-MEL-28 melanoma
TK-10 renal = system: TK-10 renal
SNB-75 CNS = system: SNB-75 CNS
COLO 205 colon = system: COLO 205 colon
EKVX NSCLC = system: EKVX NSCLC
UACC-257 melanoma = system: UACC-257 melanoma
LOX IMVI melanoma = system: LOX IMVI melanoma
OVCAR-8 ovarian = system: OVCAR-8 ovarian
NCI/ADR-RES ovarian = system: NCI/ADR-RES ovarian
SF-295 CNS = system: SF-295 CNS
HOP-62 NSCLC = system: HOP-62 NSCLC
SN12C renal = system: SN12C renal
MDA-MB-435 = system: MDA-MB-435
HCT-116 colon = system: HCT-116 colon
UACC-62 melanoma = system: UACC-62 melanoma
ACHN renal = system: ACHN renal
HCT-15 colon = system: HCT-15 colon
RPMI-8226 leukemia = system: RPMI-8226 leukemia
T-47D breast = system: T-47D breast
HS 578T breast = system: HS 578T breast
A498 renal = system: A498 renal
OVCAR-3 ovarian = system: OVCAR-3 ovarian
UO-31 renal = system: UO-31 renal
MOLT-4 leukemia = system: MOLT-4 leukemia
SR leukemia = system: SR leukemia
K-562 leukemia = system: K-562 leukemia
NCI-H522 lung = system: NCI-H522 lung
SF-539 CNS = system: SF-539 CNS
HCC-2998 colon = system: HCC-2998 colon
A549 NSCLC = system: A549 NSCLC
MDA-MB-231 breast = system: MDA-MB-231 breast
786-0 renal = system: 786-0 renal
MCF7 breast = system: MCF7 breast
NCI-H226 lung = system: NCI-H226 lung
HT29 colon = system: HT29 colon
DU-145 prostate = system: DU-145 prostate
OVCAR-5 ovarian = system: OVCAR-5 ovarian
RXF 393 renal = system: RXF 393 renal
KM12 colon = system: KM12 colon
NCI-H23 lung = system: NCI-H23 lung
CAKI-1 renal = system: CAKI-1 renal
SK-OV-3 ovarian = system: SK-OV-3 ovarian
SNB-19 CNS = system: SNB-19 CNS
MALME-3M melanoma = system: MALME-3M melanoma
OVCAR-4 ovarian = system: OVCAR-4 ovarian
SF-268 CNS = system: SF-268 CNS
PC-3 prostate = system: PC-3 prostate
M14 melanoma = system: M14 melanoma
SW-620 colon = system: SW-620 colon
NCI-H460 lung = system: NCI-H460 lung
U251 CNS = system: U251 CNS

## CC(C)C/C(=N\NC(=O)c1ccncc1)c1cc(Cl)ccc1O
SK-MEL-2 melanoma
  GI50: 1870 nM
  TGI: 31900 nM
BT-549 breast
  GI50: 922 nM
  TGI: > 25600 nM
IGROV1 ovarian
  GI50: 224 nM
  TGI: 17300 nM
CCRF-CEM leukemia
  GI50: 86.4 nM
  TGI: > 58500 nM
HOP-92 NSCLC
  GI50: 306 nM
  TGI: 28600 nM
HL-60(TB) leukemia
  GI50: 295 nM
  TGI: 2260 nM
SK-MEL-5 melanoma
  GI50: 562 nM
  TGI: 2530 nM
SK-MEL-28 melanoma
  GI50: 2610 nM
  TGI: > 69400 nM
TK-10 renal
  GI50: 348 nM
  TGI: > 100000 nM
SNB-75 CNS
  GI50: 11600 nM
  TGI: > 100000 nM
COLO 205 colon
  GI50: 354 nM
  TGI: 14400 nM
EKVX NSCLC
  GI50: 312 nM
  TGI: 25300 nM
UACC-257 melanoma
  GI50: 410 nM
  TGI: 6620 nM
LOX IMVI melanoma
  GI50: 178 nM
OVCAR-8 ovarian
  GI50: 255 nM
  TGI: > 49200 nM
NCI/ADR-RES ovarian
  GI50: 289 nM
  TGI: > 23700 nM
SF-295 CNS
  GI50: 256 nM
  TGI: 13200 nM
HOP-62 NSCLC
  GI50: 465 nM
  TGI: 64800 nM
SN12C renal
  GI50: 619 nM
  TGI: > 52500 nM
MDA-MB-435
  GI50: 682 nM
  TGI: 44900 nM
HCT-116 colon
  GI50: 244 nM
  TGI: 11000 nM
UACC-62 melanoma
  GI50: 451 nM
  TGI: 8080 nM
ACHN renal
  GI50: 157 nM
  TGI: > 41100 nM
HCT-15 colon
  GI50: 93.8 nM
  TGI: 98900 nM
RPMI-8226 leukemia
  GI50: 461 nM
  TGI: > 50700 nM
T-47D breast
  GI50: 584 nM
  TGI: 33300 nM
HS 578T breast
  GI50: 14800 nM
  TGI: > 87100 nM
A498 renal
  GI50: 2120 nM
  TGI: 45700 nM
OVCAR-3 ovarian
  GI50: 204 nM
  TGI: 5240 nM
UO-31 renal
  GI50: 211 nM
  TGI: 18600 nM
MOLT-4 leukemia
  GI50: 290 nM
  TGI: 20800 nM
SR leukemia
  GI50: 206 nM
  TGI: 29000 nM
K-562 leukemia
  GI50: 516 nM
  TGI: > 100000 nM
NCI-H522 lung
  GI50: 312 nM
  TGI: 16000 nM
SF-539 CNS
  GI50: 363 nM
  TGI: 5580 nM
HCC-2998 colon
  GI50: 270 nM
A549 NSCLC
  GI50: 498 nM
  TGI: > 42600 nM
MDA-MB-231 breast
  GI50: 622 nM
  TGI: > 46000 nM
786-0 renal
  GI50: 412 nM
  TGI: 11800 nM
MCF7 breast
  GI50: 484 nM
  TGI: 12300 nM
NCI-H226 lung
  GI50: 848 nM
  TGI: 22500 nM
HT29 colon
  GI50: 441 nM
  TGI: > 100000 nM
DU-145 prostate
  GI50: 379 nM
  TGI: 28900 nM
OVCAR-5 ovarian
  GI50: 825 nM
  TGI: 38900 nM
RXF 393 renal
  GI50: 2370 nM
  TGI: > 41000 nM
KM12 colon
  GI50: 389 nM
  TGI: 57400 nM
NCI-H23 lung
  GI50: 449 nM
  TGI: 33500 nM
CAKI-1 renal
  GI50: 213 nM
  TGI: 12600 nM
SK-OV-3 ovarian
  GI50: 852 nM
  TGI: 32200 nM
SNB-19 CNS
  GI50: 1660 nM
  TGI: > 100000 nM
MALME-3M melanoma
  GI50: 1650 nM
  TGI: 16700 nM
OVCAR-4 ovarian
  GI50: 260 nM
  TGI: > 32400 nM
SF-268 CNS
  GI50: 399 nM
  TGI: > 76600 nM
PC-3 prostate
  GI50: 1010 nM
  TGI: 73500 nM
M14 melanoma
  GI50: 627 nM
  TGI: 13300 nM
SW-620 colon
  GI50: 677 nM
  TGI: > 100000 nM
NCI-H460 lung
  GI50: 127 nM
  TGI: 31800 nM
U251 CNS
  GI50: 303 nM
  TGI: > 72100 nM
